Read-outs that look alike come from different tables or passages of the source.
Assays:
[1] = test system: LPS-mediated MCP-1 production in THP-1 cells; test: LPS-mediated MCP-1 production in THP-1 cells; format: cell-based; settings: Homo sapiens; 12.5 μM test compound; THP-1 cells, LPS 1 μg/ml; NI = no inhibition
Description: (§1) THIAA derivatives synthesized in Examples 1-19 were dissolved in dimethyl sufoxide (DMSO) and stored at −20° C. LPS was purchased from Sigma Chemicals (St. Louis, Miss.).
(§2) The effect of the THIAA derivatives on LPS-mediated MMP-9, IL-1β, ([…], MCP-1, RANTES, and MIP-1α was evaluated in THP-1 cells. Stimulation of THP-1 cells with LPS (1 μg/ml) activated the production of MMP-9, IL-1β, MCP-1, RANTES, and MIP-1α.
(§3) Results are summarized in Table 2, with data represented as % inhibition of inflammatory mediator production.

[2] = test system: LPS-mediated nitric oxide (NO) production in RAW264.7 cells; test: LPS-mediated NO production in RAW264.7 murine macrophage model; format: cell-based; settings: Mus musculus, 12.5 μM test compound, LPS 1 μg/ml, NI = no inhibition
Description: as §1
(§4) The effect of the THIAA derivatives on LPS-mediated prostaglandin E2 (PGE2) and nitric oxide (NO) production was evaluated in a RAW264.7 murine macrophage model. The RAW 264.7 cell line was purchased from ATCC (Manassas, Va.) and maintained according to their instructions. Cells were grown and subcultured in 96-well plates at a density of 8×10^4 cells per well, and reached 80-90% confluence the next day. THIAA derivatives were added to the cells in serum-free medium at a final concentration of 0.1% DMSO. Following one hour of incubation with the THIAA derivatives, LPS (1 μg/ml) or DMEM medium alone was added to the cells and incubation was continued for 6 hours. Stimulation of RAW 264.7 cells with LPS (1 μg/ml) for 6 hours activated the production of PGE2 and NO. Supernatant media was collected for measurement of PGE2 levels. For NO, incubations were continued overnight. Supernatant media was collected for measurement of NO levels after 16 hours of stimulation. PGE2 levels were measured using assay kits from Assay Designs, (Ann Arbor, Mich.) and NO levels were measured using assay kits from Cayman Chemicals (Ann Harbor, Mich.).
as §3

PPARγ = target: T1, PPARγ (Homo sapiens, UniProt P37231); test: PPARγ reporter assay (INDIGO Biosciences); format: cell-based; settings: 20 h
T1 sequence (P37231 1-505): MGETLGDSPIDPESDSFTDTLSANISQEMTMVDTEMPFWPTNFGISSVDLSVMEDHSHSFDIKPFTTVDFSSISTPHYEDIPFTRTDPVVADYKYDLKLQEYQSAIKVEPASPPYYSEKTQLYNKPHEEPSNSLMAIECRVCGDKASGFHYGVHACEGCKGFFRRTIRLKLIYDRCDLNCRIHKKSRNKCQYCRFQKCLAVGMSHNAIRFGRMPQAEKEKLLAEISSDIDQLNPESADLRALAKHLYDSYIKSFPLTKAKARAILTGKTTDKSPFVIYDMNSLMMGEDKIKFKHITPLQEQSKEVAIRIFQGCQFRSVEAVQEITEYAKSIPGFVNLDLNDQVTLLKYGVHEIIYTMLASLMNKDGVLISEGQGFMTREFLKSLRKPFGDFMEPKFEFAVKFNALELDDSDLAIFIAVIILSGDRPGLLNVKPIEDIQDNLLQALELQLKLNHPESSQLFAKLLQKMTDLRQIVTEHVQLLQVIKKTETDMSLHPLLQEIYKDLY
Description: (§5) The functional effect of THIAA derivatives on PPARα and PPARγ activity was evaluated using a PPAR reporter assay (INDIGO Biosciences, Pa.). This assay utilizes non-human mammalian cells engineered to provide constitutive high level expression of PPARα, or PPARγ and containing a luciferase report gene specific to the appropriate PPAR. Following activation by agonist binding, PPAR induces expression of the luciferase reporter gene. Luciferase activity therefore provides a surrogate for measuring PPAR activity in agonist-treated cells.
(§6) 0.1% DMSO was used as a solvent control for each assay. Plates were incubated for 20 hours in a humidified incubator at 37° C. and 5% CO2. After incubation, the cell medium was discarded and the cells were treated with 100 μL of luciferase detection reagent for 15 minutes. Plates were analyzed using a luminometer (Victor2, Perkin Elmer). Average relative light unit (RLU) and standard deviation were measured.

[3] = test system: LPS-mediated prostaglandin E2 (PGE2) production in RAW264.7 cells; test: LPS-mediated PGE2 production in RAW264.7 murine macrophage model; format: cell-based; settings: 12.5 μM test compound, LPS 1 μg/ml, NI = no inhibition; for inhibition at 12.5 µM: Mus musculus, RAW264.7, 6 h
Description: as §1, §4, §3

[4] = test system: LPS-mediated MIP-1α production in THP-1 cells; test: LPS-mediated MIP-1α production in THP-1 cells; format: cell-based; settings: Homo sapiens; 12.5 μM test compound; THP-1 cells, LPS 1 μg/ml; NI = no inhibition
Description: as §1, §2, §3

[5] = test system: LPS-mediated RANTES production in THP-1 cells; test: LPS-mediated RANTES production in THP-1 cells; format: cell-based; settings: Homo sapiens; 12.5 μM test compound; THP-1 cells, LPS 1 μg/ml; NI = no inhibition
Description: as §1, §2, §3

PPARα = target: T2, PPARα (Homo sapiens, UniProt Q07869); test: PPARα reporter assay (INDIGO Biosciences); format: cell-based; settings: for Emax at 12.5 µM: read-out: PPARα % GW590735 (20.6 nM)
T2 sequence (Q07869 1-468): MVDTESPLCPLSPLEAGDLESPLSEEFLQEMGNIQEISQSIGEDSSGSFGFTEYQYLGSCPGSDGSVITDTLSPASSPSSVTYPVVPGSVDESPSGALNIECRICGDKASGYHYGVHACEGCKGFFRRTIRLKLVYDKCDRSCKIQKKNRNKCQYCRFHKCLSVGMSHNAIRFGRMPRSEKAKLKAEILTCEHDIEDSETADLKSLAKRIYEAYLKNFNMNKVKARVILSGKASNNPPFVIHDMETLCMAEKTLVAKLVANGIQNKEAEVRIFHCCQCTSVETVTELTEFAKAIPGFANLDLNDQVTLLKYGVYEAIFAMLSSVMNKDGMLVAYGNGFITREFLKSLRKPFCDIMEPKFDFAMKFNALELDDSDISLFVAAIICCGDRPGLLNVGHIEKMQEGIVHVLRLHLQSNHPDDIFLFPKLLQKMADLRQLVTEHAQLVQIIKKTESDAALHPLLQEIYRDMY
Description: as §5, §6

[6] = test system: LPS-mediated IL-6 production in THP-1 cells; test: LPS-mediated IL-6 production in THP-1 cells; format: cell-based; settings: Homo sapiens; 12.5 μM test compound; THP-1 cells, LPS 1 μg/ml; NI = no inhibition
Description: as §1, §2, §3

[7] = test system: LPS-mediated inflammatory mediators in RAW264.7 and THP-1 cells; test: Mean inhibition across all six inflammatory mediators; format: cell-based; settings: 12.5 μM test compound
Description: as §4, §2, §3
Mean inhibition across all six inflammatory mediators was calculated for each of the THIAA derivatives.

[8] = read-out: PPARγ % rosiglitazone (500 nM), 12.5 μM test compound, luciferase reporter cells, 20 hours, activity compared to rosiglitazone
[9] = 12.5 μM test compound, luciferase reporter cells, 20 hours, activity compared to GW590735

SMILES | Emax at 12.5 µM (PPARγ; [8]) [%] | Emax at 12.5 µM (PPARα; [9]) [%] | PPARα % GW590735 (20.6 nM) (PPARα; [9]) | melting point [°C] | inhibition at 12.5 µM [1] [%] | inhibition at 12.5 µM ([2]; 16 hours) [%] | Emax at 12.5 µM (PPARγ; read-out: PPARγ % rosiglitazone (500 nM)) [%] | % inhibition of PGE2 production ([3]; 6 hours) | inhibition at 12.5 µM [4] [%] | inhibition at 12.5 µM [5] [%] | Emax at 12.5 µM (PPARα; 20 h) [%] | inhibition at 12.5 µM [6] [%] | inhibition at 12.5 µM [7] [%] | inhibition at 12.5 µM ([2]; RAW264.7, 16 h) [%] | inhibition at 12.5 µM [3] [%]
CC(C)CCC(=O)[C@@]1(O)C([O-])=C(C(=O)CC(C)C)C(=O)[C@@H]1CCC(C)C.[K+] (stereo in doubt) [KDT501, Potassium salt of (+)-KDT500] | – | – | – | – | 77 | 23 | 31 | No inhibition (NI) | 62 | 77 | < 5 | 49 | 48 | – | –
CC(C)CC[C@H]1C(=O)C(C(=O)CC(C)C)=C(O)[C@]1(O)C(=O)CCC(C)C(=O)O (stereo partly drawn) [KDT0038, 5-[(1S,5R)-1,2-dihydroxy-3-(3-methylbutanoyl)-5-(3-methylbutyl)-4-oxocyclopent-2-en-1-yl]-2-methyl-5-oxopentanoic Acid] | < 5 | < 5 | – | – | 46 | – | – | – | < 0 | < 20 | – | < 0 | < 20 | < 0 | < 0
C#CCCOC(=O)O[C@]1(C(=O)CCC(C)C)C(O)=C(C(=O)CC(C)C)C(=O)[C@@H]1CCC(C)C [KDT0035, but-3-yn-1-yl (1S,5R)-2-hydroxy-3-(3-methylbutanoyl)-5-(3-methylbutyl)-1-(4-methylpentanoyl)-4-oxocyclopent-2-en-1-yl carbonate] | 43 | 40 | dual PPARα and PPARγ agonists | – | 95 | – | – | – | 82 | 84 | – | 65 | 77 | 44 | 89
CO/N=C(/CC(C)C)C1=C(O)[C@](O)(C(O)CCC(C)C)[C@@H](CCC(C)C)C1=O (stereo partly drawn) [KDT0005, (4R,5R)-3,4-dihydroxy-4-(1-hydroxy-4-methylpentyl)-2-(N-methoxy-3-methylbutanimidoyl)-5-(3-methylbutyl)cyclopent-2-en-1-one] | < 5 | < 5 | – | – | 38 | – | – | – | 20 | 25 | – | < 20 | < 20 | < 0 | < 0
CC(C)CCC(=O)[C@@]1(O)C(=O)/C(=C(\CC(C)C)NCCO)C(=O)[C@@H]1CCC(C)C [KDT0017, (4R,5R)-4-hydroxy-2-{1[(2-hydroxyethyl)amino]-3-methylbutylidene}-5-(3-methylbutyl)-4-(4-methylpentanoyl)cyclopentane-1,3-dione] | < 5 | < 5 | – | – | 80 | – | – | – | < 0 | < 0 | – | 50 | 23 | < 20 | < 0

Further lines, with some results ahead:

Emax at 12.5 µM (PPARγ; [8]) [%] | Emax at 12.5 µM (PPARα; [9]) [%] | PPARα % GW590735 (20.6 nM) (PPARα; [9]) | melting point [°C] | SMILES | inhibition at 12.5 µM [1] [%] | inhibition at 12.5 µM ([2]; 16 hours) [%] | Emax at 12.5 µM (PPARγ; read-out: PPARγ % rosiglitazone (500 nM)) [%] | % inhibition of PGE2 production ([3]; 6 hours) | inhibition at 12.5 µM [4] [%] | inhibition at 12.5 µM [5] [%] | Emax at 12.5 µM (PPARα; 20 h) [%] | inhibition at 12.5 µM [6] [%] | inhibition at 12.5 µM [7] [%] | inhibition at 12.5 µM ([2]; RAW264.7, 16 h) [%] | inhibition at 12.5 µM [3] [%]
– | < 5 | no effect | 49 to 50 | CC(C)CCC(=O)[C@@]1(O)C(O)=C(C(=O)C(C)C)C(=O)[C@@H]1CCC(C)C [KDT100, (4S,5R)-3,4-dihydroxy-5-(3-methylbutyl)-4-(4-methylpentanoyl)-2-(2-methylpropanoyl)cyclopent-2-en-1-one] | 61 | – | – | – | < 0 | 22 | – | < 20 | < 20 | < 0 | < 0
< 5 | < 5 | – | – | CC(C)=CC[C@H]1C(=O)C(C(=O)CC(C)C)=C(O)[C@]1(O)C(=O)/C=C/C(C)(C)O [KDT0040, (4S,5R)-3,4-dihydroxy-4-[(2E)-4-hydroxy-4-methylpent-2-enoyl]-2-(3-methylbutanoyl)-5-(3-methylbut-2-en-1-yl)cyclopent-2-en-1-one] | 53 | – | – | – | < 0 | 18 | – | < 0 | 25 | 26 | 54
< 5 | < 5 | – | – | CC(C)CCC(O)[C@@]1(O)C(O)=C(C(=O)CC(C)C)C(=O)[C@@H]1CCC(C)C (stereo partly drawn) [KDT0039, (4R,5R)-3,4-dihydroxy-4-(1-hydroxy-4-methylpentyl)-2-(3-methylbutanoyl)-5-(3-methylbutyl)cyclopent-2-en-1-one] | 50 | – | – | – | 23 | 58 | – | 22 | 26 | < 20 | < 0

— patent US10343977B2, “Tetrahydro-isohumulone derivatives, methods of making and using” (KINDEX PHARMACEUTICALS, INC., priority 2012, dated 2019)
